Where “and” joins values, the source holds several entries; their conditions need not be identical. Equal values may be shown once.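 Compound exposure: 48 hours, 5 concentrations, 96-well plates. At the GI50, growth is halved. TGI: total growth inhibition.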
Assays:
Experiment in all cases: growth of human tumour cells (NCI), 48 h
NCI-H522 lung = test system: NCI-H522 lung
OVCAR-5 ovarian = test system: OVCAR-5 ovarian
RXF 393 renal = test system: RXF 393 renal
SW-620 colon = test system: SW-620 colon
NCI-H460 lung = test system: NCI-H460 lung
COLO 205 colon = test system: COLO 205 colon
EKVX NSCLC = test system: EKVX NSCLC
SNB-75 CNS = test system: SNB-75 CNS
TK-10 renal = test system: TK-10 renal
SR leukemia = test system: SR leukemia

SMILES: Cc1ccccc1C1=C(C(=O)Nc2ccc(Cl)c(Cl)c2)NC(=S)NC1N (stereo not drawn)
- TGI (NCI-H522 lung): > 100 µM
- TGI (OVCAR-5 ovarian): > 100 µM
- TGI (RXF 393 renal): > 100 µM
- TGI (SW-620 colon): > 100 µM
- TGI (NCI-H460 lung): > 100 µM
- TGI (COLO 205 colon): > 100 µM
- TGI (EKVX NSCLC): > 100 µM
- TGI (SNB-75 CNS): > 100 µM
- TGI (TK-10 renal): > 100 µM

SMILES: O=C1c2cc(Cl)ccc2-c2c1c1ccc([N+](=O)[O-])cc1c(=O)n2CCCBr
- GI50 (NCI-H522 lung): 5.02 µM
- TGI (NCI-H522 lung): 43.4 µM
- GI50 (OVCAR-5 ovarian): > 100 µM
- TGI (OVCAR-5 ovarian): > 100 µM
- GI50 (RXF 393 renal): 17.6 µM
- TGI (RXF 393 renal): > 100 µM
- GI50 (SW-620 colon): 3.78 µM
- TGI (SW-620 colon): > 100 µM
- GI50 (NCI-H460 lung): 0.931 µM
- TGI (NCI-H460 lung): > 100 µM
- GI50 (COLO 205 colon): 3.37 µM
- TGI (COLO 205 colon): > 100 µM
- GI50 (EKVX NSCLC): > 100 µM
- TGI (EKVX NSCLC): > 100 µM
- GI50 (SNB-75 CNS): 5.96 µM
- TGI (SNB-75 CNS): 64.2 µM
- GI50 (TK-10 renal): 61.9 µM
- TGI (TK-10 renal): > 100 µM

SMILES: COC(=O)C(=O)C(C(=O)C(=O)Nc1cccc(C(C)=O)c1)c1nc2ccccc2[nH]c1=O (stereo not drawn)
- TGI (NCI-H522 lung): > 100 µM
- TGI (OVCAR-5 ovarian): > 100 µM
- TGI (RXF 393 renal): > 100 µM
- TGI (SW-620 colon): > 100 µM
- TGI (NCI-H460 lung): > 100 µM
- TGI (COLO 205 colon): > 100 µM
- TGI (EKVX NSCLC): > 100 µM
- TGI (SNB-75 CNS): > 100 µM
- TGI (TK-10 renal): > 100 µM

SMILES: CCOC(=O)c1cc(/C=C/C(C)=C/C(=O)OC)oc1C
- TGI (SR leukemia): > 100 µM
- TGI (NCI-H522 lung): > 100 µM
- TGI (OVCAR-5 ovarian): > 100 µM
- TGI (SW-620 colon): > 100 µM
- TGI (NCI-H460 lung): > 100 µM
- TGI (COLO 205 colon): > 100 µM
- TGI (EKVX NSCLC): > 100 µM
- TGI (SNB-75 CNS): > 100 µM
- TGI (TK-10 renal): > 100 µM

SMILES: Cc1cccc(C)c1NC(=O)C1C(=O)N(c2c(C)cccc2C)C(=O)/C1=N\NC(N)=S (stereo not drawn)
- TGI (NCI-H522 lung): > 100 µM
- TGI (OVCAR-5 ovarian): > 100 µM
- TGI (RXF 393 renal): > 100 µM
- TGI (SW-620 colon): > 100 µM
- TGI (NCI-H460 lung): > 100 µM
- TGI (EKVX NSCLC): > 100 µM
- TGI (TK-10 renal): > 100 µM

SMILES: Cc1cc2c(cc1Cl)SC1=NN(C)C(N(C)C)N1S2(=O)=O (stereo not drawn)
- GI50 (SR leukemia): > 100 µM
- TGI (SR leukemia): > 100 µM
- GI50 (NCI-H522 lung): > 100 µM
- TGI (NCI-H522 lung): > 100 µM
- GI50 (OVCAR-5 ovarian): > 100 µM
- TGI (OVCAR-5 ovarian): > 100 µM
- GI50 (SW-620 colon): > 100 µM
- TGI (SW-620 colon): > 100 µM
- GI50 (NCI-H460 lung): > 100 µM
- TGI (NCI-H460 lung): > 100 µM
- GI50 (COLO 205 colon): > 100 µM
- TGI (COLO 205 colon): > 100 µM
- GI50 (EKVX NSCLC): > 100 µM
- TGI (EKVX NSCLC): > 100 µM
- GI50 (SNB-75 CNS): 86.4 µM
- TGI (SNB-75 CNS): > 100 µM
- GI50 (TK-10 renal): > 100 µM
- TGI (TK-10 renal): > 100 µM

SMILES: CCN(CC)C(=S)Oc1cc2oc(=O)cc(C)c2cc1Cl
- TGI (SR leukemia): > 100 µM
- TGI (NCI-H522 lung): > 100 µM
- TGI (OVCAR-5 ovarian): > 100 µM
- TGI (RXF 393 renal): > 100 µM
- TGI (SW-620 colon): > 100 µM
- TGI (NCI-H460 lung): > 100 µM
- TGI (COLO 205 colon): > 100 µM
- TGI (EKVX NSCLC): > 100 µM
- TGI (TK-10 renal): > 100 µM

SMILES: Cc1ccc(-c2cc(-c3ccccc3)c(C#N)c(=O)n2C2OC(CO)C(O)C(O)C2O)cc1 (stereo not drawn)
- TGI (NCI-H522 lung): > 100 µM
- TGI (OVCAR-5 ovarian): > 100 µM
- TGI (RXF 393 renal): > 100 µM
- TGI (SW-620 colon): > 100 µM
- TGI (NCI-H460 lung): > 100 µM
- TGI (COLO 205 colon): > 100 µM
- TGI (EKVX NSCLC): > 100 µM
- TGI (TK-10 renal): > 100 µM

SMILES: O=c1cccc(C2CC(CO)C3CCCCN3C2)[nH]1 (stereo not drawn)
- TGI (NCI-H522 lung): > 100 µM
- TGI (OVCAR-5 ovarian): > 100 µM
- TGI (SW-620 colon): > 100 µM
- TGI (NCI-H460 lung): > 100 µM
- TGI (COLO 205 colon): > 100 µM
- TGI (EKVX NSCLC): > 100 µM
- TGI (SNB-75 CNS): > 100 µM
- TGI (TK-10 renal): > 100 µM

SMILES: COc1cc2ncnc(Nc3ccc(F)c(Cl)c3)c2cc1NC(=O)/C=C/CN1CCCCC1
- GI50 (NCI-H522 lung): 0.0296 µM and 0.00694 µM
- TGI (NCI-H522 lung): 1.64 µM and 1.89 µM
- GI50 (OVCAR-5 ovarian): 1.19 µM and 1.17 µM
- TGI (OVCAR-5 ovarian): 8.45 µM and > 8.15 µM
- GI50 (RXF 393 renal): 0.919 µM and 0.89 µM
- TGI (RXF 393 renal): 2.55 µM and 2.94 µM
- GI50 (SW-620 colon): 1.84 µM and 1.64 µM
- TGI (SW-620 colon): 4.42 µM and 3.54 µM
- GI50 (NCI-H460 lung): 2.18 µM and 2.4 µM
- TGI (NCI-H460 lung): 6.22 µM and 7 µM
- GI50 (COLO 205 colon): 1.68 µM and 2 µM
- TGI (COLO 205 colon): 3.43 µM and 4.18 µM
- GI50 (EKVX NSCLC): 0.00274 µM
- TGI (EKVX NSCLC): > 10 µM
- GI50 (SNB-75 CNS): 1.03 µM and 1.25 µM
- TGI (SNB-75 CNS): 6 µM and 6.47 µM
- GI50 (TK-10 renal): < 0.01 µM and 0.00151 µM
- TGI (TK-10 renal): 1.68 µM and 2.3 µM

Source: PubChem BioAssay (NCI)
